{"source": "patent US20230024950A1", "about": "“METHODS FOR TREATING NEURODEGENERATIVE DISORDERS” (Alzheon, Inc., priority 2019, published 2023)", "origin": "cited, not measured here", "key": {"[1]": {"target": "Aβ oligomers (Homo sapiens, UniProt P05067)", "sequence (P05067 672-713 limits assumed)": "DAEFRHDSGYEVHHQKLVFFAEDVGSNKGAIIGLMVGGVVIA", "conditions": "in vitro"}, "[2]": {"test": "not given", "remark": "listed apart in the source"}}, "data": [{"smiles": "NCCCS(=O)(=O)O", "note": "[Tramiprosate, 3-amino-1-propanesulfonic acid]", "values": [{"measurement": "safety profile", "setting": "Phase 3 trials and safety extension study, exposures of up to 2.5 years", "value": "favorable safety profile"}, {"measurement": "effect on MRI imaging: brain hippocampal volume (hippocampus atrophy)", "setting": "Phase 3 trials, mild-to-moderate AD, dose-dependent", "value": "slowing the reduction of brain hippocampal volume"}, {"measurement": "benefit on cognition", "setting": "subgroup analysis of APOE4/4 homozygotes, 100 mg BID or 150 mg BID over 78 weeks", "value": "positive and clinically meaningful benefit on cognition"}, {"measurement": "cognitive efficacy", "setting": "subset of APOE4 carriers, especially APOE4/4 homozygotes", "value": "positive cognitive efficacy"}, {"measurement": "formation of Aβ oligomers", "setting": "[1]", "value": "inhibits the formation of Aβ oligomers in vitro"}]}, {"smiles": "CC(C)[C@H](N)C(=O)NCCCS(=O)(=O)O", "note": "[ALZ-801, valyl-3-amino-1-propanesulfonic acid]", "values": [{"measurement": "plasma exposure compared with tramiprosate from the Phase 3 studies", "setting": "[2]; Phase 1b", "value": "bioequivalence to plasma exposures to tramiprosate"}, {"measurement": "pharmacokinetics and oral tolerability compared with tramiprosate", "setting": "[2]; oral", "value": "improved pharmacokinetics and oral tolerability over tramiprosate"}]}]}
